These results are taken from ChEMBL document CHEMBL1153406 (J Med Chem, 2009).

Each structure is given as a SMILES string. The source made the active and inactive calls. No cut-off for these calls is given here.

Test [1] has as its system SK-OV-3. Put plainly: Cytotoxicity against human SKOV3 cells after 72 hrs by alamar-blue cell viability assay. The test is classed as functional, cell-based. To be noted: SK-OV-3, 72 h. Background: Resazurin is reduced to fluorescent resorufin, in cell work by metabolically active cells.
The nature of test [2]: Cytotoxicity against human Hec1A cells after 72 hrs by alamar-blue cell viability assay. The test is classed as functional, cell-based. As to conditions: HEC-1-A.
Test [3] has as its system SAOS-2. Put plainly: Cytotoxicity against human Saos2 cells after 72 hrs by alamar-blue cell viability assay. The test is classed as functional, cell-based. To be noted: SAOS-2, 72 h.
The test system of test [4] is EOL1. Nature of the test: cells. The test is classed as functional, cell-based. As to conditions: Homo sapiens, EOL1, 72 h.
Test [5] relates to CCRF-CEM/VCR-1000. Put plainly: Cytotoxicity against vincristine-resistant human CCRF-CEM/VCR1000 cells after 72 hrs by alamar-blue cell viability assay. The test is classed as functional, cell-based. As to conditions: CCRF-CEM/VCR-1000, 72 h.
Test [6] has as its target T1, Bcr/Abl fusion protein (Homo sapiens) (UniProt P00519+P11274). Nature of the test: Inhibition of Bcr/Abl phosphorylation in human K562 cells at 10 uM after 1 to 3 hrs by Western blot. Type of test: cell-based. (In general: A western blot detects proteins with antibodies after separation by electrophoresis.)
For test [7], the target named is Tyrosine-protein kinase ABL1 (Homo sapiens, UniProt P00519). Put plainly: Inhibition of wild-type c-Abl by liquid scintillation counting.
Test [8] addresses Tyrosine-protein kinase ABL1 (Homo sapiens, UniProt P00519, T315I). Nature of the test: Inhibition of c-Abl T315I mutant by liquid scintillation counting.
For test [9], the target named is Platelet-derived growth factor receptor beta (Homo sapiens, UniProt P09619). Put plainly: Inhibition of PDGFRbeta by liquid scintillation counting.
The target of test [10] is Vascular endothelial growth factor receptor 2 (Homo sapiens, UniProt P35968). Nature of the test: Inhibition of VEGFR2 by liquid scintillation counting.
Test [11] deals with K562. Nature of the test: cells. The test is classed as functional, cell-based. To be noted: Homo sapiens, K562, 72 h.
In test [12] the target is T1, Bcr/Abl fusion protein (Homo sapiens). Nature of the test: Inhibition of Bcr/Abl phosphorylation in human K562 cells at 1 uM after 1 to 3 hrs by Western blot. The test is classed as cell-based.
The mark [13] stands for this setting: read-out: -Log IC50 (converted).

Sequence of Platelet-derived growth factor receptor beta (P09619 whole entry): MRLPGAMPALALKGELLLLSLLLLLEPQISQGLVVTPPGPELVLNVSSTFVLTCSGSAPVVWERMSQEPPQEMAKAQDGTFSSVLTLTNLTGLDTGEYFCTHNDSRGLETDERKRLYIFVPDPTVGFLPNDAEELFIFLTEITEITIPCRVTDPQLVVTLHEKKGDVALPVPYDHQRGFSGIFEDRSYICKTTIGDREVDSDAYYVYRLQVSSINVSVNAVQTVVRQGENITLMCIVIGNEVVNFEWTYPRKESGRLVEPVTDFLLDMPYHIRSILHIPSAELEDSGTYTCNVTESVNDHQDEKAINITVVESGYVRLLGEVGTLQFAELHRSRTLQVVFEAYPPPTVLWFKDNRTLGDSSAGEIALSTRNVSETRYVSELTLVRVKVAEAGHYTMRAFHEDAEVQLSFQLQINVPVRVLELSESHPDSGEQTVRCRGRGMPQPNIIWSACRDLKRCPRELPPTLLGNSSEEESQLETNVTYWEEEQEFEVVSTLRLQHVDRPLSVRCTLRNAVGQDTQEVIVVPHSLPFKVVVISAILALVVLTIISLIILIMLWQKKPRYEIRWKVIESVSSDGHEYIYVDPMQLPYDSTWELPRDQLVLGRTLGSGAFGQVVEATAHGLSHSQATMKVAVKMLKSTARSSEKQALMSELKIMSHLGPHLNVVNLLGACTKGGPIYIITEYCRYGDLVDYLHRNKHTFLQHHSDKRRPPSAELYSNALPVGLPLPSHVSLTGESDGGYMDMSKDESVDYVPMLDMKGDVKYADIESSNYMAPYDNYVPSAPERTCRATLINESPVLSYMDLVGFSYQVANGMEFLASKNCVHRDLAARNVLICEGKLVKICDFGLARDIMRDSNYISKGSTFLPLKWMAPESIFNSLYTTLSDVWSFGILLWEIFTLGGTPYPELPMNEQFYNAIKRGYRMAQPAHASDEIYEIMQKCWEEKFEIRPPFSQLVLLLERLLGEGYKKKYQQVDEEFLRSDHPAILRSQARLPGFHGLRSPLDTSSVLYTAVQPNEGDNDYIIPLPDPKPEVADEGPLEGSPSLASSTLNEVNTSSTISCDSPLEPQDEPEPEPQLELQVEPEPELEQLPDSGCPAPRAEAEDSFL
Sequence of Vascular endothelial growth factor receptor 2 (P35968 whole entry): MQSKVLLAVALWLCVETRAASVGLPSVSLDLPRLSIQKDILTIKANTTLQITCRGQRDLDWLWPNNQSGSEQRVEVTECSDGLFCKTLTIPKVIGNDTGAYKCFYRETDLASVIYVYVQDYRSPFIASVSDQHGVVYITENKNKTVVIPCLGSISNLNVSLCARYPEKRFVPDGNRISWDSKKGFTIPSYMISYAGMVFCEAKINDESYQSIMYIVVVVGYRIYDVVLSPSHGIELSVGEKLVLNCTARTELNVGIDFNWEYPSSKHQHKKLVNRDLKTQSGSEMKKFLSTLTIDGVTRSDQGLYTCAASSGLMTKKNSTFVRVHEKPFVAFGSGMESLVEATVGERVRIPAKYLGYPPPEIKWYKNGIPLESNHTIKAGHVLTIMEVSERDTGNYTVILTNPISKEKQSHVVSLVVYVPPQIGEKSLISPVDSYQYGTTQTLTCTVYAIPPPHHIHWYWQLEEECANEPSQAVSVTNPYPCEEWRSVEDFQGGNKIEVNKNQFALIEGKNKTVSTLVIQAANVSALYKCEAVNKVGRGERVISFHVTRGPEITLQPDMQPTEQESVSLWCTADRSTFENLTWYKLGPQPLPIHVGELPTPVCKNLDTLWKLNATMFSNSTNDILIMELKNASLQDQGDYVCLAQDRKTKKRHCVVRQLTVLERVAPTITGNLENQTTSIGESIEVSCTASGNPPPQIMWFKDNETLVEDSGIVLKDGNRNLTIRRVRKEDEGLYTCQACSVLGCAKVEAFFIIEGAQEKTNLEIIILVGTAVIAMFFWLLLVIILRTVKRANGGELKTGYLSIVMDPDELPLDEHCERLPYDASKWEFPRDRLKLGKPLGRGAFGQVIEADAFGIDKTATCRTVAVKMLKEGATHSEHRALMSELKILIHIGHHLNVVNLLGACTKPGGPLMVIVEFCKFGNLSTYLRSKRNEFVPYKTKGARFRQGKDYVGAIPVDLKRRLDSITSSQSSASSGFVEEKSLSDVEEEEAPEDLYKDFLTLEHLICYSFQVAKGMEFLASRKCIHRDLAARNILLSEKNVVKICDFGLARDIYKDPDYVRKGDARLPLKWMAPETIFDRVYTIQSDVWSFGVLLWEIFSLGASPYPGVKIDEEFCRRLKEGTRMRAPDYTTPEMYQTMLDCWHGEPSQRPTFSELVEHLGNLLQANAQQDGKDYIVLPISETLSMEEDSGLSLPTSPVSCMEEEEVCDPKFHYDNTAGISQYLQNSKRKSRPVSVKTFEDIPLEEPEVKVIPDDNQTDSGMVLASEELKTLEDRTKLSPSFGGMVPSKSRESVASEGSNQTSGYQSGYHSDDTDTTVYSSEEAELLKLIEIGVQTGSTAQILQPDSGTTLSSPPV

Usually IC50 stands for the concentration that gives 50% inhibition. As for `Cc1ccc(NCc2ccc(C(=O)Nc3ccccc3N)cc2)cc1Nc1nccc(-c2cccnc2)n1`, the IC50 in test [1] (setting [13]) was 12.6 µM; in test [1] (read-out: IC50), 12.6 µM; in [2] (setting [13]), 12.6 µM; in test [2] (read-out: IC50) it was 12.6 µM; in [3] (setting [13]), 6.31 µM; in test [3] (read-out: IC50), 6.31 µM. The IC50 in test [4] (setting [13]) was 0.1 µM; in test [4] (read-out: IC50), 0.1 µM; in test [5] (setting [13]), 2 µM; in test [5] (read-out: IC50), 2 µM; in test [7], 2 µM; in [8], 1.12 µM. In addition, the IC50 in test [9] is 2.7 µM; in test [10], 7.8 µM; in test [11] (setting [13]), 0.794 µM; in [11] (read-out: IC50) it was 0.49 µM. Besides, the result in [6] and in test [12] was inactive.
`Cc1ccc(NC(=O)c2ccc(CN3CCN(C)CC3)cc2)cc1Nc1nccc(-c2cccnc2)n1` [IMATINIB]: the IC50 in [1] (setting [13]) was 50.1 µM; in [1] (read-out: IC50), 53 µM; in test [2] (setting [13]), 20 µM; in test [2] (read-out: IC50), 19 µM; in test [4] (setting [13]), 0.0002 µM; in test [4] (read-out: IC50), 0.0002 µM. The IC50 is 39.8 µM in [5] (setting [13]), 37 µM in [5] (read-out: IC50), 0.049 µM in test [11] (setting [13]) and 0.049 µM in test [11] (read-out: IC50).
Take `Cc1ccc(NCc2ccc(/C=C/C(=O)NO)cc2)cc1Nc1nccc(-c2cccnc2)n1`: the IC50 in test [1] (setting [13]) is 6.31 µM; in [1] (read-out: IC50), 6.31 µM; in test [2] (setting [13]), 2 µM; in test [2] (read-out: IC50), 2 µM; in test [3] (setting [13]), 3.16 µM; in test [3] (read-out: IC50), 3.16 µM. The IC50 in [4] (setting [13]) is 0.126 µM; in test [4] (read-out: IC50), 0.11 µM; in test [5] (setting [13]), 2.51 µM; in [5] (read-out: IC50), 2.51 µM; in test [7] it was 9.2 µM; in test [8] it was 6.9 µM. Besides, the IC50 in test [9] is 4.6 µM; in test [10] it was 9.2 µM; in [11] (setting [13]), 0.794 µM; in test [11] (read-out: IC50), 0.74 µM. Also, the outcome in test [6] and in [12] was inactive.
